The inhibition is how much of the control response was suppressed.

The test system of data set [1] is HCT8 WT cells. In words: Coincubation cytotoxicity experiment with a specific ERK1/2 inhibitor. In kind it is cell-based, human. The conditions noted are these: 24 hours, different dosage ratios. The procedure: HCT8 WT cells were coincubated.
Data set [2] deals with T1, human telomerase (Homo sapiens, UniProt O14746).
T1 construct: human telomerase obtained from cells of a colon carcinoma (HCT8 WT); endogenous in cells; host or cells: HCT8 WT colon carcinoma cells
T1 sequence (O14746 whole entry): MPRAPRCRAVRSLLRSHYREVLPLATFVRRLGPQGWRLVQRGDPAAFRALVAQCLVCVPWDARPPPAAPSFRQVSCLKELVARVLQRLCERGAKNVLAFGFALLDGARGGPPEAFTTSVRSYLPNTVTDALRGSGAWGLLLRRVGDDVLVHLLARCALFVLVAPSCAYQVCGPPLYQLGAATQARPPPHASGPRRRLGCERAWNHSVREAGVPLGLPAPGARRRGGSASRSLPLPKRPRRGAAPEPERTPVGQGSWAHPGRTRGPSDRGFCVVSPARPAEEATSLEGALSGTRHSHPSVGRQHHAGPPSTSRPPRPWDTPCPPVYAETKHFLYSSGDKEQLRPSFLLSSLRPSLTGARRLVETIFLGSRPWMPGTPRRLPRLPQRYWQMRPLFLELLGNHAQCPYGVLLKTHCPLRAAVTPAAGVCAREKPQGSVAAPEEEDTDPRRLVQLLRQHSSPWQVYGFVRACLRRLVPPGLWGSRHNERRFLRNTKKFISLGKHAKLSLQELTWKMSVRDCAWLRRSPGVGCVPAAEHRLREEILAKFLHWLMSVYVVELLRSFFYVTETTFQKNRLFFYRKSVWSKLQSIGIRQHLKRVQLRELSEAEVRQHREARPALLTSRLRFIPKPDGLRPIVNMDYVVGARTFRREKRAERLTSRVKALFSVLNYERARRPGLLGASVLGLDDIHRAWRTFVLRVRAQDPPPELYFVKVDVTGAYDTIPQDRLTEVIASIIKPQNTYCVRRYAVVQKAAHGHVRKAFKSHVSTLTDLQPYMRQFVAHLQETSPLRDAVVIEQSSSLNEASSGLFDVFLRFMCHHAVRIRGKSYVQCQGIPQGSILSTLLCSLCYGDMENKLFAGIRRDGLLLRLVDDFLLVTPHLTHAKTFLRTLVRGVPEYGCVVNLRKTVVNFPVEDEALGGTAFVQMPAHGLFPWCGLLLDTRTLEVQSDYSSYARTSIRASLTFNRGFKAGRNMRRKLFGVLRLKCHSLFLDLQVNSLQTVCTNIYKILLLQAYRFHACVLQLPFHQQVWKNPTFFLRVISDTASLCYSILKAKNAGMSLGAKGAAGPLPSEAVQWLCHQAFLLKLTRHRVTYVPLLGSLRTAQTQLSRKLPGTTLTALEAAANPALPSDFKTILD
In words: Telomeric Repeat Amplification Assay (TRAP) ELISA. The format is biochemical. The conditions noted are these: at 50 μg/ml; telomerase from HCT8 WT colon carcinoma cells. The procedure: The effect of substance (I) on human telomerase is determined by carrying out the so-called Telomeric Repeat Amplification Assay (TRAP) ELISA, based on the method of N. W. Kim et al.
This method is based on use of the polymerase chain reaction (PCR). This entails, in a first step, a number of (GGTTAG) motifs being attached by means of the telomerase activity to the 3′ end of a biotin-labeled oligonucleotide (TS=telomerase substrate). In a second step, the products extended in this way are amplified by the PCR technique using TS and RP (R=reverse) primers. In this way, a “ladder” of products in increments of 6 bases (initial size=50 nucleo-tides) is generated. During the amplification, DNP-labeled dCTP is incorporated into the PCR products. Detection and quantification of the synthesized telomerase products using a sandwich ELISA method are a measure of the telomerase enzymatic activity.
The telomerase products carry the biotin-labeled TS primers and bind to the surface of microtiter plates previously coated with streptavidin. An anti-DIG antibody conjugated to POD binds to the […] nucleotides incorporated during the amplification. After addition of the substrate TMB, the telomerase activity is visualized by […] via the onset of the color reaction by the enzyme POD. In this case, the measured absorption is directly proportional to the telomerase activity. […]

Data set [3] has as its target T2, topoisomerase I (Homo sapiens, UniProt P11387).
T2 construct: 160 ng of cell nucleus extract with the topoisomerase I present therein; endogenous in cells
T2 sequence (P11387 1-765): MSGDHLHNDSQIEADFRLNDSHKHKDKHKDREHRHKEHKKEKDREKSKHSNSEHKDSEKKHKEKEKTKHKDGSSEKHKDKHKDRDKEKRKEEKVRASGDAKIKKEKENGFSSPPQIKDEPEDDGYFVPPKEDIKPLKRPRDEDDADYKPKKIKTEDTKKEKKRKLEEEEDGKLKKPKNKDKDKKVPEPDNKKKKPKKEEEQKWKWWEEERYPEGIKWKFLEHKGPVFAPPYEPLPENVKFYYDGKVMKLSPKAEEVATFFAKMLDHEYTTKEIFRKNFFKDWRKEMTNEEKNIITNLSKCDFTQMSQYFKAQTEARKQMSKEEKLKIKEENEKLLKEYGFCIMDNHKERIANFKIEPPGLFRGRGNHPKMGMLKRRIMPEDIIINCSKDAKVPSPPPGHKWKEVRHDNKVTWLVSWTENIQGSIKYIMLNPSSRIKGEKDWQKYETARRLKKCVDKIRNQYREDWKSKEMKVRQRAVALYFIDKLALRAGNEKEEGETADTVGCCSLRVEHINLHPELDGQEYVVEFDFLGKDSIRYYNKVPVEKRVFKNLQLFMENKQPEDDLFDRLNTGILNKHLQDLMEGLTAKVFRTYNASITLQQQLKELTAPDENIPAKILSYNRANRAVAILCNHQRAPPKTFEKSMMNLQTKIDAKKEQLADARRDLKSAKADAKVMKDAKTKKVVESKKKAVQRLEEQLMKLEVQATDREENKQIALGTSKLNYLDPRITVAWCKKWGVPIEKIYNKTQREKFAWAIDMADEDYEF
The data set can be described thus: Topo I unwinding assay. The format is biochemical. The conditions noted are these: for concentration required for topoisomerase I inhibition as multiple of the IC50 of tumor cell growth: in vitro. The text has this: The assay is based on an ATP-independent unwinding of twisted pBR322 plasmid DNA dimers by topoisomerase I. The two different topological forms of the plasmid DNA, the twisted form and unwound, relaxed form, are separated in this investigation by means of an agarose gel. The enzyme topoisomerase I is obtained for this purpose from cell nucleus extracts of the tumor cell lines.
Cell nucleus extracts are obtained by the method of Sullivan with the modifications of Danks et al.

In data set [4] the test system is ERK1/2 protein. The data set can be described thus: Western blot analysis of ERK1/2 phosphorylation. The format is cell-based, human. The conditions noted are these: HCT8 WT, detectable even at IC50 dose. The source says:
Phosphorylation of certain signal transduction pathways plays an essential role in the regulation of cell growth and gene expression. The protein ERK1/2 (MAP kinase) belongs to the MAP kinase signal transduction pathway.
Treatment of human colon carcinoma cells (HCT8 WT) with substance (I) leads to phosphorylation of this protein, which is detected in a Western blot analysis (FIG. 8).
A general note: Immunoblotting shows a protein as a band on a membrane.

Data set [5] concerns HT29 WT. In words: DNA double-strand breaks, HT29 WT. In kind it is cell-based, human. The procedure:
(§1) DNA isolated after treatment of the cells for various times with substance (I) is for this purpose analyzed by gel electrophoresis.
(§2) Determination of the DNA double-strand breaks is performed on ^14C-labeled DNA. For this purpose, [^14C]d-thymidine-labeled cells are treated with various concentrations of substance (I). The DNA is isolated by an adapted method of Chia Chiao et al.
(§3) The DNA fractionated by gel electrophoresis is subsequently stained with ethidium bromide.
(§4) On a transilluminator (302 nm), the intact DNA which has not migrated in the electric field is separated from the fragmented DNA, which has thus migrated into the gel, by extraction. The isolated gel and DNA fragments are liquefied at +80° C. in the presence of hydrochloric acid. After addition of a scintillator it is possible to determine the radioactivity using a liquid scintillation meter (TPI-CARB 2100RT). The measured radioactivity is indicated in […] (cpm).

For data set [6], the system named is tumor cell lines, resistant subclones and non-tumor cell lines. The data set can be described thus: SRB assay, comparison across the cell line panel. In kind it is cell-based. In general terms: In SRB staining, fixed cells bind dye roughly in proportion to their protein.
Method: Six unambiguously characterized tumor cell lines of human origin (native cell lines and those converted into resistant subclones) and two non-tumor cell lines are used for further investigations (table 2).
The sensitivity of the cell lines to the substance (I) is determined in a so-called sulforhodamine B (SRB) assay. This is a robust and highly reproducible standard method which is also established for example at the NCI (National Cancer Institute, USA) (Skehan et al. 1990).
The concentration of substance (I) which inhibits cell growth by 50% (IC50, determined from semilogarithmic dose versus effect plots) are indicated.
The subject of data set [7] is H460 WT cells. The data set can be described thus: DNA double-strand breaks in [14C]d-thymidine-labeled cells, H460 WT. In kind it is cell-based, human. The conditions noted are these: up to 10 times the IC50 concentration, 6 hours. The procedure:
as §1, §2, §3, §4
The results represent averages and their standard deviation from n=3 independent experiments.

Data set [8] relates to HCT8 WT bowel cancer cells. In words: Cell cycle analysis (BrdU/PI flow cytometry). In kind it is cell-based, human. The conditions noted are these: IC50 concentration, 24 hours. The procedure:
Flow cytometric investigations by an adapted method of Tsugita M. et al. are used for the analysis.
Exponentially growing HCT8 WT bowel cancer cells are treated with substance (I) with the determined IC50 concentration for 24 hours, and then the cells are incubated with BrdU. The cells fixed with methanol are subjected to a treatment with a detergent (Triton X-100/HCl) in order to denature the DNA strands. After incubation with the fluorescence-labeled antibody (anti-BrdU mAb, FITC-labeled), the second fluorescent dye (PI, propidium iodide) is added.
The DNA content (propidium iodide fluorescence) and the amount of BrdU taken up (FITC fluorescence) are determined using a Coulter flow cytometer (Coulter EPICS XL). Exemplary results are depicted in FIGS. 3a and 3b.
FIGS. 3a and 3b show BrdU and PI uptakes into the DNA of HCT8 WT cells, untreated (control, […]) and treated with substance (I) (IC50, 24 hours, […]). The depicted results are representative of n=3 independent experiments.
In general terms: A flow cytometer gives signals particle by particle.

Data set [9] has as its target DNA polymerase (Thermus aquaticus, UniProt P19821). In words: Preliminary experiment with the TSR8 template. The conditions noted are these: maximum concentration 50 μg/ml. In kind it is biochemical. The procedure:
In order to ensure the effect of substance (I) on telomerase, an effect of substance (I) on DNA polymerase must be ruled out. In a preliminary experiment with TSR8 as internal control, the effect of substance (I) at various concentration levels was ruled out.
Amplification of the TSR8 template depends only on DNA polymerase. Every inhibitor of this enzyme can be detected using the substrate.
The experiment is carried out in triplicates.

Chain of DNA polymerase (P19821 whole entry): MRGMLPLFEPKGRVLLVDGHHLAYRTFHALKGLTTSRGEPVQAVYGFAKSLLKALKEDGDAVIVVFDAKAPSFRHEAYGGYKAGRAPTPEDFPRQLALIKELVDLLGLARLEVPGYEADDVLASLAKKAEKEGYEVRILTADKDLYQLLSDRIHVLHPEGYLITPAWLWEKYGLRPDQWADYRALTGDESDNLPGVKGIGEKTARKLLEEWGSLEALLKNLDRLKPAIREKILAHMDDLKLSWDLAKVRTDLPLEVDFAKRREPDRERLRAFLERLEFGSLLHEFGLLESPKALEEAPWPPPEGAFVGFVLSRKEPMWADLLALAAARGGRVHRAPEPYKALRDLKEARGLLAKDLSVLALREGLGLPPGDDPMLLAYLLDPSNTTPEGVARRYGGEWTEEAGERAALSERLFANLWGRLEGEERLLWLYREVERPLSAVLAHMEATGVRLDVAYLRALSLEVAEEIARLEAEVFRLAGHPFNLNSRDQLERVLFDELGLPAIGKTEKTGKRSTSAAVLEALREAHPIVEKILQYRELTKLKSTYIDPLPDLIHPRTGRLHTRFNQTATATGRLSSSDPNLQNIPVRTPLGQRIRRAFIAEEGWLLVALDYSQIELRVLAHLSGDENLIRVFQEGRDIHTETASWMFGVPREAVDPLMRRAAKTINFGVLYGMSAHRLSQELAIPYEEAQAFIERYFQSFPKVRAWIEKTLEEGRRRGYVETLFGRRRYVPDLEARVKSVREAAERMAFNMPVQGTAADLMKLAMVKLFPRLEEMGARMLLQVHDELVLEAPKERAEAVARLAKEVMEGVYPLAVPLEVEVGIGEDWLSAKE

On to `CC(C)=CCC1=C(O)[C@]2(C(=O)c3ccccc3)C(=O)[C@@](CC=C(C)C)(CC(CC=C(C)C)C2(C)C)C1=O` (stereo partly drawn) [Substance (I), 1-Benzoyl-8,8-dimethyl-2-hydroxy-3,5,7-tris-(3-methyl-2-butenyl)bicyclo[3.3.1]non-2-ene-4,9-dione], for which, in [1], the “cytotoxicity on coincubation with a specific ERK1/2 inhibitor (MAP kinase inhibitor)” value is “pronounced synergism”. Also, the “inhibition of human telomerase” value in data set [2] is reported as “Complete inhibition”. In data set [3] (at 100 μg/ml, 160 ng cell nucleus extract, pBR322 plasmid DNA), 100 µg/mL produced 100% inhibition. In addition, the “concentration required for topoisomerase I inhibition as multiple of the IC50 of tumor cell growth” value in [3] turned out to be 20 times. Moreover, the “phosphorylation of the ERK1/2 protein” value in [4] is “dose-dependent phosphorylation”. In addition, the “induction of DNA double-strand breaks” value in data set [5] is reported as “substantial amounts of double-strand breaks”; in data set [7] it was “significant amounts of double-strand breaks”. In addition, the “cytotoxicity for the non-tumor cell lines compared with tumor cell lines” value in data set [6] (fibroblasts of the 3T3 and MCR 5 lines) is “considerably less”. Moreover, the “cross-resistance to the indicated cytostatics” value in [6] (resistant subclones versus native cell lines) is given as “no cross-resistance”. Further, the “effect on cell cycle (BrdU uptake)” value in [8] is reported as “inhibition of the synthesis phase”. Also, in data set [9], the “inhibition of Tag polymerase (TSR8 template amplification)” value was “does not lead to a significant inhibition”.
In the case of `CC[C@@]1(O)C(=O)OCc2c1cc1n(c2=O)Cc2cc3c(CN(C)C)c(O)ccc3nc2-1` [topotecan, reference compound], the “concentration required for topoisomerase I inhibition as multiple of the IC50 of tumor cell growth” value in data set [3] is given as 1000 times.

Source of the values: patent publication US7135501B2, “Clusianon isomers and use thereof” (priority 2001, dated 2006).
